Results from US5753681A, “Treatment and prophylaxis of pancreatitis” (Sankyo Company, Limited, priority 1996, dated 1998).

How the values were obtained:
[1] = Suppression of the decrease in the pancreatic weight in a model of spontaneous chronic pancreatitis; type: in vivo, male WBN/Kob rats; details: in feed: pioglitazone 0.05% (25 mg/kg/day), BRL-49653 0.005% (2.5), Compound A 0.005% (3.0); three months; normal 1152 ± 43, control 680 ± 26; ***p < 0.001 (pioglitazone, BRL-49653), **p < 0.01 (Compound A)
Text: The test animals were male WBN/Kob rats, which are commonly used as models of spontaneous chronic pancreatitis and suffer pancreatic weight loss and dysfunction of the exocrine pancreatic tissue due to degeneration and necrosis of the pancreatic parenchyma and its replacement by connective tissue [Tsuchitani et al., Laboratory Animals, 19(3), 200-207, (1985)]. Each group of test animals contained 4 animals, and the animals were used for the experiment when they had reached 12 weeks old. The animals were fed with powdered feed F2 mixed with 0.2% of troglitazone for three months. This group is hereinafter referred to as "the treated group". The average dose of the compound during this period was 140 mg/kg/day. Meanwhile, another four rats (control group) were fed with the powdered feed F2 only. After the rats had been fed with the feeds for three months, the pancreas of each animal was totally enucleated and its weight was measured.
(§1) The procedure described in Example 2 was repeated, except that the test compound was pioglitazone ("the pioglitazone group"), BRL-49653 ("the BRL-49653 group"), or Compound A ("the Compound A group").

[2] = Histopathology of pancreatic tissue of Example 3: total cross-sectional area and cicatrized area; type: in vivo, male WBN/Kob rats; details: doses of Example 3
Method: The measurement of the cicatrized area may also be carried out by conventional procedures. More specifically, male WBN/Kob rats are used as models of spontaneous chronic pancreatitis and are fed with a powdered feed admixed with a test compound. The pancreas of each animal is then totally enucleated. Its weight is measured and also the cicatrized area is measured relative to the total cross-sectional area of the pancreas tissue sliced by an image analyser.
as §1
In order to evaluate the results of Example 2 histopathologically, each pancreas used for weight measurement in Example 2 was fixed in 10% neutral formalin. It was then divided into a spleen side half and a duodenum side half, and each half was sliced at 3 mm intervals to provide cross-sectional tissue pieces. All of these tissue pieces were subjected to paraffin sectioning by conventional procedures and then to hematoxylin-eosin staining and Masson's trichrome staining to prepare two tissue preparations, which were used for histopathological examination. The total cross-sectional area of the pancreatic tissue piece on each preparation was measured using an image analyser (SPICCAII, manufactured by Olympus Optical Co., Ltd.).
In addition, the surface area of the zone which had undergone degeneration and necrosis and in which the exocrine pancreatic tissue was replaced with connective tissue (the cicatrized area) was measured using an image analyser.
In order to evaluate the results of Example 3 histopathologically, the total cross-sectional area and cicatrized area of each pancreas whose weight was measured in Example 3 was measured by the procedure described in Example 4.

Acute toxicity = type: in vivo, ddY mice (male); details: oral dose of 300 mg/kg or more
Method: Acute toxicity was assayed by conventional procedures. […] At the end of this time, the animals were all alive. When the acute toxicities of Compounds No. 2, 3, 4 and 10 were measured in the same manner, the mice were all alive after an oral dose of 300 mg/kg or more.

[3] = duodenum side, control 5.52 ± 0.86, **p < 0.01 all three
[4] = duodenum side, control 90.3 ± 14.9
[5] = spleen side pancreatic half, control 8.11 ± 0.76, *p < 0.05 pioglitazone, **p < 0.01 Compound A
[6] = spleen side pancreatic half, control 99.3 ± 9.8, **p < 0.01 pioglitazone, *p < 0.05 BRL-49653

SMILES | Pancreatic weight [1] [mg] | Cicatrized area in the exocrine pancreatic tissue [2, 3] [mm^2] | Total cross-sectional area of pancreatic tissue piece [2, 4] [mm^2] | Cicatrized area in the exocrine pancreatic tissue [2, 5] [mm^2] | Total cross-sectional area of pancreatic tissue piece [2, 6] [mm^2] | Survival (acute toxicity) (Acute toxicity)
CN(CCOc1ccc(CC2SC(=O)NC2=O)cc1)c1ccccn1 (stereo not shown) [BRL-49653, 5-[4-{2-[N-Methyl-N-(pyridin-2-yl)amino]ethoxy}benzyl]-thiazolidine-2,4-dione] | 976 ± 51 | 1.21 ± 0.40 | 100.9 ± 2.1 | 5.40 ± 1.35 | 147.2 ± 14.2 | –
CC(=NOCCOc1ccc(CC2SC(=O)NC2=O)cc1)c1ccc(-c2ccccn2)cc1 (stereo not shown) [Compound A, 5-(4-{2-[1-(4-2'-pyridylphenyl)ethylideneaminooxy]ethoxy}-benzyl)thiazolidine-2,4-dione] | 853 ± 44 | 1.17 ± 0.15 | 90.3 ± 10.2 | 2.62 ± 0.51 | 100.8 ± 12.5 | –
CCc1ccc(CCOc2ccc(CC3SC(=O)NC3=O)cc2)nc1 (stereo not shown) [Pioglitazone, 5-{4-[2-(5-Ethylpyridin-2-yl)ethoxy]benzyl}thiazolidine-2,4-dione] | 982 ± 52 | 1.12 ± 0.26 | 122.0 ± 9.8 | 4.98 ± 1.03 | 157.8 ± 16.1 | –
Cc1c(C)c2c(c(C)c1O)CCC(COc1ccc(CC3SC(=O)NC3=O)cc1)O2 (stereo not shown) [compound 2] | – | – | – | – | – | all alive
CC1(COc2ccc(CC3SC(=O)NC3=O)cc2)CCc2cc(O)ccc2O1 (stereo not shown) [compound 3] | – | – | – | – | – | all alive
CC1(COc2ccc(CC3SC(=O)NC3=O)cc2)CCc2cc(O)c(C(C)(C)C)cc2O1 (stereo not shown) [compound 4, 5-[4-(6-Hydroxy-2-methyl-7-t-butylchroman-2-ylmethoxy)benzyl]thiazolidine-2,4-dione] | – | – | – | – | – | all alive
CCOC(=O)Oc1c(C)c(C)c2c(c1C)CCC(C)(COc1ccc(CC3SC(=O)NC3=O)cc1)O2 (stereo not shown) [compound 10, 5-[4-(6-Ethoxycarbonyloxy-2,5,7,8-tetramethylchroman-2-ylmethoxy)benzyl]-thiazolidine-2,4-dione] | – | – | – | – | – | all alive
